Read-outs that look alike come from different tables or passages of the source.
Experiments:
P. falciparum = assay: In vitro anti-malarial activity, [3H]-hypoxanthine incorporation assay; type: cell-based; conditions: Plasmodium falciparum
Protocol: The in vitro anti-malarial activity was measured using the [3H]-hypoxanthine incorporation assay with various strains of P. falciparum (Roche). Results were expressed as the concentration corresponding to 50% inhibition. The anti-malarial assays were performed at the Swiss Tropical Institute, Basel, Switzerland.

mammalian cytotoxicity = assay: Toxicity assay, colorimetric MTT assay (mammalian cytotoxicity); type: cell-based; conditions: data from two independent assays
Protocol: Toxicity was determined by using the colorimetric 3-(4,5-dimethylthiazol-2-yl)-2,5-diphenyltetrazoliumbromide (MTT) assay. The toxicity assays were performed at the Swiss Tropical Institute, Basel, Switzerland.

[1] = Solubility in DMSO (footnote to Table 2); type: physicochemical; design: key: *: Not fully soluble in DMSO; conditions: footnote mark on the anti-malarial activity value
Excerpt: Table 2 Summary of anti-malarial activity and cytotoxicity | column: Average Anti-malarial Activity**(ng/ml)

[2] = P. falciparum, in vitro, data from two independent assays, read-out: Average Anti-malarial Activity (concentration corresponding to 50% inhibition)
[3] = P. falciparum, in vitro, read-out: IC50 (anti-malarial activity)

| IC50 (P. falciparum; [2]) [µg/mL] | IC50 (P. falciparum; [3]) [nM] | SMILES | Average Cytotoxicity (mammalian cytotoxicity) [ng/mL] | also measured |
| --- | --- | --- | --- | --- |
| 5.38 | 12500 | CC(NC(=O)CN1CCCN(CC(=O)NC(C)(C)C)CC1)c1ccc2c(c1)CCCC2 (stereo not shown) [GR-M002] | – | – |
| 0.446 | 999 | Cc1ccc(Cn2cc(CCC(=O)NCCCN3CC(C)CC(C)C3)c3ccccc32)cc1 (stereo not shown) [GR-M007] | 10420 | – |
| – | – | COc1cc([C@@H]2c3cc4c(cc3[C@H](O)[C@H]3COC(=O)[C@H]23)OCO4)cc(OC)c1OC [Podophyllotoxin, reference compound] | 9.5 | – |
| 0.172 | 332 | CC1=C(CCC(C)N(C)Cc2ccc(OCCCN3CCCC3)cc2)C(C)(C)CCC1 (stereo not shown) [GR-M010] | 4860 | – |
| – | > 20000 | CC(C)(C)c1cnnn1-c1ccc(C=Cc2ccc(C=Cc3ccc4ccccc4n3)cc2)cc1 [GR-M001] | – | Solubility in DMSO [1]: * |
| 4.78 | 10300 | Cc1ccc(C)c(NCC(O)COc2ccc(OCC(O)CNc3cc(C)ccc3C)cc2)c1 (stereo not shown) [GR-M004] | – | – |
| 9.74 | 18900 | Cc1cccc(C)c1OCCOCC(O)CN1CCN(Cc2ccc3c(c2)OCO3)CC1 (stereo not shown) [GR-M005] | – | – |
| – | – | CCN(CC)CCCC(C)Nc1ccnc2cc(Cl)ccc12 (stereo not shown) [chloroquine, reference compound] | – | IC50 (P. falciparum; read-out: Average Anti-malarial Activity (concentration corresponding to 50% inhibition)): 0.0042 µg/mL; IC50 (P. falciparum; read-out: IC50 (anti-malarial activity)): 13 nM |
| 0.086 | 185 | CC(C)(C)CC(C)(C)Cc1ccc(OCCOCC[N+](C)(C)Cc2ccccc2)cc1 [GR-M011] | 3250 | – |
| 1.63 | 3520 | Cc1ccc2c(c1)N(CCCC(=O)NCCCN1CCC(Cc3ccccc3)CC1)C(=O)CO2 [GR-M006] | – | – |
| – | > 20000 | O=CN1CCN(CC(O)COc2ccc(OCC(O)CN3CCN(C=O)CC3)cc2)CC1 (stereo not shown) [GR-M003] | – | – |

| SMILES | IC50 (P. falciparum; [2]) [µg/mL] | IC50 (P. falciparum; [3]) [nM] | Average Cytotoxicity (mammalian cytotoxicity) [ng/mL] | also measured |
| --- | --- | --- | --- | --- |
| Cc1cccc[n+]1CCCCCCCCCC[n+]1ccccc1C [GR-M009] | 0.013 | 27 | – | – |
